The nature of the data set: Mean peak blood calcitonin concentration (Cmax) of sCT after oral capsule dosing of monkeys. It is filed as in vivo, cynomolgous monkeys. The source says: 5-CNAC disodium salt ethanol solvate was screened through a 35 mesh Tyler standard sieve. 13.54 g of this material was weighed out and kept in a weighing boat. 0.028 g of parathyroid hormone (PTH) and 0.025 g of salmon calcitonin (sCT) were separately weighed out and kept in separate weighing boats. An amount of the previously weighed 5-CNAC disodium salt ethanol solvate approximately equivalent in volume to the total volume of PTH (i.e. a geometric amount) was prescreened through the same 35 mesh Tyler standard sieve on to clean paper. All the PTH was then screened through the same sieve onto the same paper. An amount of the screened 5-CNAC disodium salt ethanol solvate equivalent in volume to the total amount of material on the paper was screened through the same sieve. This was followed by screening the sCT through the same sieve on to the paper. A geometric amount of the 5-CNAC disodium salt ethanol solvate was then screened through the same sieve onto the paper. The materials on the paper were then transferred to a glass mortar and mixed by light trituration with a pestle. The remainder of the 5-CNAC disodium salt ethanol solvate was screened through the same 35 mesh Tyler standard sieve. […]
Four cynomolgous monkeys were dosed via a feeding tube two capsules each followed by 10 ml water. The mean peak blood calcitonin concentration, Cmax, of sCT was then measured.

The values below come from US20080146509A1, “COMPOSITIONS FOR DELIVERING PARATHYROID HORMONE AND CALCITONIN” (EMISPHERE TECHNOLOGIES, INC., priority 2002, published 2008).

For orientation: Cmax means the highest concentration seen after dosing.

As to `CC(C)C[C@H](NC(=O)[C@H](CCCCN)NC(=O)CNC(=O)[C@H](CC(C)C)NC(=O)[C@@H](NC(=O)[C@@H]1CSSC[C@H](N)C(=O)N[C@@H](CO)C(=O)N[C@@H](CC(N)=O)C(=O)N[C@@H](CC(C)C)C(=O)N[C@@H](CO)C(=O)N[C@@H]([C@@H](C)O)C(=O)N1)C(C)C)C(=O)N[C@@H](CO)C(=O)N[C@@H](CCC(N)=O)C(=O)N[C@@H](CCC(=O)O)C(=O)N[C@@H](CC(C)C)C(=O)N[C@@H](Cc1c[nH]cn1)C(=O)N[C@@H](CCCCN)C(=O)N[C@@H](CC(C)C)C(=O)N[C@@H](CCC(N)=O)C(=O)N[C@H](C(=O)N[C@@H](Cc1ccc(O)cc1)C(=O)N1CCC[C@H]1C(=O)N[C@@H](CCCNC(=N)N)C(=O)N[C@H](C(=O)N[C@@H](CC(N)=O)C(=O)N[C@H](C(=O)NCC(=O)N[C@@H](CO)C(=O)NCC(=O)N[C@H](C(=O)N1CCC[C@H]1C(N)=O)[C@@H](C)O)[C@@H](C)O)[C@@H](C)O)[C@@H](C)O` [sCT, salmon calcitonin], the “mean peak blood concentration of sCT relative to that found when dosing capsules of 5-CNAC and sCT in rhesus monkeys” value (capsules of 5-CNAC disodium salt ethanol solvate, PTH and sCT in cynomolgous monkeys vs capsules of 5-CNAC and sCT in rhesus monkeys) is recorded as “about four”. The highest concentration (Cmax) (monkey, blood, oral, cynomolgous monkeys, via feeding tube two capsules each (per capsule approx. 226.28 mg 5-CNAC disodium salt ethanol solvate, 0.461 mg PTH, 0.411 mg sCT) followed by 10 ml water) fell in the range of 2 to 2.5 ng/mL.
